# Assay results reported in ChEMBL document CHEMBL1909046, “DrugMatrix in vitro pharmacology data”.
# How the values were obtained:
# [1] = DRUGMATRIX: beta-Lactamase enzyme inhibition (substrate: Nitrocefin); parameters: species or system Bacillus cereus; conditions: Not Active = under 50% inhibition at 10 µM
# [2] = molecular target: C-C chemokine receptor type 2 (Homo sapiens, UniProt P41597); type: cell membranes, CHO-K1, Membrane; conditions: cho-k1; note: in other assays of this panel Not Active means under 50% inhibition at 10 µM
# [3] = molecular target: T1, Alpha-2A adrenergic receptor (Homo sapiens, UniProt P08913); type: cell membranes, Sf9, Membrane; note: in other assays of this panel Not Active means under 50% inhibition at 10 µM
# T1 sequence (P08913 whole entry): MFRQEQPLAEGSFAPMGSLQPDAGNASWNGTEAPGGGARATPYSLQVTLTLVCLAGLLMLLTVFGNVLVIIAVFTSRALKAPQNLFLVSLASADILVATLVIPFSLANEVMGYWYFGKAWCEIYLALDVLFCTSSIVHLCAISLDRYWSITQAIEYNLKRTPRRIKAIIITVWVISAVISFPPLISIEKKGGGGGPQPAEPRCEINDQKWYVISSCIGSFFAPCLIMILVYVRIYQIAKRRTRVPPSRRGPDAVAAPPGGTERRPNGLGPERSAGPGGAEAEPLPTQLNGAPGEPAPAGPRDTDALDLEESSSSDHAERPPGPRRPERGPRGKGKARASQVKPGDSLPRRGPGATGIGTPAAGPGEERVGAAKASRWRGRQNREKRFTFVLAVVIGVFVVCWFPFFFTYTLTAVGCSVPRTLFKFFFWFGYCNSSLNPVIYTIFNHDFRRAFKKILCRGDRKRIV
# [4] = DRUGMATRIX: Calcium Channel Type L, Dihydropyridine radioligand binding (ligand: [3H] Nitrendipine); type: cell membranes, Rattus norvegicus, Wistar, Cerebral cortex, Membrane; conditions: Not Active = under 50% inhibition at 10 µM
# [5] = DRUGMATRIX: Atrial Natriuretic Factor (ANF) radioligand binding (ligand: [125I] ANF (rat)); type: cell membranes, Cavia porcellus, Dunkin-Hartley, Adrenal gland, Membrane; conditions: Not Active = under 50% inhibition at 10 µM
# [6] = molecular target: T2, Substance-K receptor (Homo sapiens, UniProt P21452); type: cell membranes, CHO, Membrane; note: in other assays of this panel Not Active means under 50% inhibition at 10 µM
# T2 sequence (P21452 whole entry): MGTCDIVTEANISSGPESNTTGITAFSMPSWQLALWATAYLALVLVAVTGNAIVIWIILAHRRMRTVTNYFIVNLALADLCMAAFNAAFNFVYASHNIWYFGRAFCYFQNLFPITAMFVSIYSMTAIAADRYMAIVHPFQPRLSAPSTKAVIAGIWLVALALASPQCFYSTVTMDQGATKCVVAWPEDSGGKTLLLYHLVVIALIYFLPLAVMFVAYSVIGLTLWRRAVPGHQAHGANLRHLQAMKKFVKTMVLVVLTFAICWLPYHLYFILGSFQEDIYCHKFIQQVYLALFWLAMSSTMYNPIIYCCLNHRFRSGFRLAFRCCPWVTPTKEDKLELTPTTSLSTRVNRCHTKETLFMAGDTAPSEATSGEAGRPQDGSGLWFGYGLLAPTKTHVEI
# Chain of C-C chemokine receptor type 2 (P41597 whole entry): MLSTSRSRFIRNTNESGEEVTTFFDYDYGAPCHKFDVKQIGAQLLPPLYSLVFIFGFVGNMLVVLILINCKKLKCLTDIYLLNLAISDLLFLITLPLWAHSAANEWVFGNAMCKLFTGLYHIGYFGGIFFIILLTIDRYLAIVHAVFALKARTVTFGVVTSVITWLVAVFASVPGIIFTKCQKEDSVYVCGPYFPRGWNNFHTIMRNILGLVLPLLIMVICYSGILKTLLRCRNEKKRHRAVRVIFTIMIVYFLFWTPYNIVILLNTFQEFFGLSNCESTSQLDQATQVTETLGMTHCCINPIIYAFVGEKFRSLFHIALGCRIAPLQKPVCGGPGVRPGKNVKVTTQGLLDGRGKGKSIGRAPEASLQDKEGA
SMILES,IC50 [1],Ki [1],IC50 [2],IC50 ([3]; sf9),IC50 [4],Ki [4],IC50 [5],Ki [5],IC50 ([6]; cho),IC50 ([3]; read-out: IC50),Ki ([3]; read-out: Ki),IC50 ([4]; read-out: IC50),Ki ([4]; read-out: Ki),IC50 ([6]; read-out: IC50),Ki ([6]; read-out: Ki)
NC[C@H]1O[C@H](O[C@H]2[C@H](O)[C@@H](O[C@H]3O[C@H](CO)[C@@H](O)[C@H](N)[C@H]3O)[C@H](N)C[C@@H]2N)[C@H](O)[C@@H](O)[C@@H]1O [KANAMYCIN],Not Active,Not Active,Not Active,Not Active,Not Active,Not Active,Not Active,Not Active,Not Active,,,,,,
O=C(/C=C/c1ccc(O)c(O)c1)OCCc1ccccc1 [CAFFEIC ACID PHENETHYL ESTER],Not Active,Not Active,Not Active,Not Active,Not Active,Not Active,Not Active,Not Active,Not Active,,,,,,
NC[C@@H]1O[C@H](O[C@H]2[C@@H](O)[C@H](O[C@@H]3[C@@H](O)[C@H](N)C[C@H](N)[C@H]3O[C@H]3O[C@H](CN)[C@@H](O)[C@H](O)[C@H]3N)O[C@@H]2CO)[C@H](N)[C@@H](O)[C@@H]1O [FRAMYCETIN],Not Active,Not Active,Not Active,Not Active,Not Active,Not Active,Not Active,Not Active,Not Active,,,,,,
CCCCCC[C@H]1C(=O)O[C@H](C)[C@H](NC(=O)c2cccc(NC=O)c2O)C(=O)O[C@@H](C)[C@@H]1OC(=O)CC(C)C [ANTIMYCIN A],Not Active,Not Active,Not Active,Not Active,Not Active,Not Active,Not Active,Not Active,Not Active,,,,,,
Oc1ccccc1O [CATECHOL],Not Active,Not Active,Not Active,Not Active,Not Active,Not Active,Not Active,Not Active,Not Active,,,,,,
Cc1c(F)c(N2CCNC(C)C2)cc2c1c(=O)c(C(=O)O)cn2C1CC1 (stereo not given) [GREPAFLOXACIN],Not Active,Not Active,Not Active,Not Active,Not Active,Not Active,Not Active,Not Active,Not Active,,,,,,
[N-]=[N+]=CC(=O)OC[C@H](N)C(=O)O [AZASERINE],Not Active,Not Active,Not Active,Not Active,Not Active,Not Active,Not Active,Not Active,Not Active,,,,,,
C#C[C@]1(O)CC[C@H]2[C@@H]3CCC4=Cc5oncc5C[C@]4(C)[C@H]3CC[C@@]21C [DANAZOL],Not Active,Not Active,Not Active,,,,Not Active,Not Active,,18.3 µM,6.87 µM,19.6 µM,12.6 µM,26.6 µM,8.86 µM
CO[C@H]1[C@@H](O)[C@H](N)[C@@H](O[C@H]2O[C@H]([C@H](C)N)CC[C@H]2N)[C@H](O)[C@@H]1N(C)C(=O)CN [ASTROMICIN],Not Active,Not Active,Not Active,Not Active,Not Active,Not Active,Not Active,Not Active,Not Active,,,,,,
COc1ccc2cc(CCC(C)=O)ccc2c1 [NABUMETONE],Not Active,Not Active,Not Active,Not Active,Not Active,Not Active,Not Active,Not Active,Not Active,,,,,,
NC(=O)N1c2ccccc2C=Cc2ccccc21 [CARBAMAZEPINE],Not Active,Not Active,Not Active,Not Active,Not Active,Not Active,Not Active,Not Active,Not Active,,,,,,
Cc1c(N(C)CS(=O)(=O)[O-])c(=O)n(-c2ccccc2)n1C.[Na+] [DIPYRONE SODIUM],Not Active,Not Active,Not Active,Not Active,Not Active,Not Active,Not Active,Not Active,Not Active,,,,,,
OCCN1CCN(CCCN2c3ccccc3Sc3ccc(Cl)cc32)CC1 [PERPHENAZINE],Not Active,Not Active,Not Active,Not Active,Not Active,Not Active,Not Active,Not Active,Not Active,,,,,,
CC[C@]1(O)CC[C@H]2[C@@H]3CCC4=CCCC[C@@H]4[C@H]3CC[C@@]21C,Not Active,Not Active,Not Active,Not Active,Not Active,Not Active,Not Active,Not Active,Not Active,,,,,,
CCOC(=O)n1ccn(C)c1=S [CARBIMAZOLE],Not Active,Not Active,Not Active,Not Active,Not Active,Not Active,Not Active,Not Active,Not Active,,,,,,
COc1ccc(Cc2nccc3cc(OC)c(OC)cc23)cc1OC [PAPAVERINE],Not Active,Not Active,Not Active,Not Active,Not Active,Not Active,Not Active,Not Active,Not Active,,,,,,
C#C[C@]1(O)CC[C@H]2[C@@H]3CCc4cc(O)ccc4[C@H]3CC[C@@]21C [ETHINYL ESTRADIOL],Not Active,Not Active,Not Active,Not Active,Not Active,Not Active,Not Active,Not Active,Not Active,,,,,,
C[C@H]([C@](O)(Cn1cncn1)c1ccc(F)cc1F)S(C)(=O)=O [GENACONAZOLE],Not Active,Not Active,Not Active,Not Active,Not Active,Not Active,Not Active,Not Active,Not Active,,,,,,
CCOC(=O)C1=C(C)NC(C)=C(C(=O)OC)C1c1cccc(Cl)c1Cl (stereo not given) [FELODIPINE],Not Active,Not Active,Not Active,Not Active,,,Not Active,Not Active,Not Active,,,8.2e-05 µM,5.3e-05 µM,,
CCOC(=O)[C@H](CCc1ccccc1)N[C@@H](C)C(=O)N1CCC[C@H]1C(=O)O,Not Active,Not Active,Not Active,Not Active,Not Active,Not Active,Not Active,Not Active,Not Active,,,,,,
C[C@@H]1CC[C@H]2[C@@H](C)C(=O)O[C@@H]3O[C@@]4(C)CC[C@@H]1[C@]32OO4 [ARTEMISININ],Not Active,Not Active,Not Active,Not Active,Not Active,Not Active,Not Active,Not Active,Not Active,,,,,,
CN1C(=O)CN=C(c2ccccc2)c2cc(Cl)ccc21 [DIAZEPAM],Not Active,Not Active,Not Active,Not Active,Not Active,Not Active,Not Active,Not Active,Not Active,,,,,,
